For data set [1] the following is noted: stated in the description; cited from earlier work.
The nature of data set [2]: Solubility measurements of UV filter in emollients. The format is physicochemical. As to conditions: 25° C., seven days.
Method: The vial is placed in a thermostated water bath (25° C.) and the blend is stirred for seven days. If the tested UV-filter is fully soluble, additional filter is added until precipitation is observed. After seven days, the sample is centrifuged for 30 minutes at 13000 rpm. If the supernatant is turbid, it is filtered through a 0.2 μm non steril Membrex 25 PET filter.
A short description of data set [3]: Measurement of interfacial tension (polarity index) of emollients. As to conditions: Tensimat Densimat TD2000. The format is physicochemical. The source says: The term “polarity index” refers to non-polar or polar oils. Non-polar oils are mainly based on hydrocarbons and lack an electronegative element, such as oxygen. In contrast, polar oils contain heteroatoms that differ in electronegativity, which results in a dipole moment. However, such oils are still insoluble in water, i.e. hydrophob. The polarity index can be determined by measuring the interfacial tension between the respective oil and water.
Interfacial tension of the respective emollients as listed below was measured using a Tensimat Densimat TD2000.

Where a name gives a salt, the structure may show the parent alone.

On to `COc1ccc(C(=O)CC(=O)c2ccc(C(C)(C)C)cc2)cc1` [BMDBM, 1-(4-(1,1-dimethylethyl)phenyl)-3-(4-methoxyphenyl)propane-1,3-dione], for which the absorption maximum in data set [1] was 357 nm.

With `CCCCCCOC(=O)c1ccccc1C(=O)c1ccc(N(CC)CC)cc1O` [DHHB, hexyl 2-[4-(diethylamino)-2-hydroxybenzoyl]benzoate], the solubility is recorded as 22% in data set [2] (in C12-15 alkyl benzoate); 23% in data set [2] (in butylene glycol dicaprylate/dicaprate); 14% in data set [2] (in caprylic capric triglyceride); <1% in data set [2] (in cyclomethicone); 31% in data set [2] (in dibutyl adipate); 21% in data set [2] (in diisopropyl adipate). In addition, the solubility in data set [2] (in diisopropyl sebacate) was 41%; in data set [2] (in hydrogenated polyisobutene) it was <1%; in data set [2] (in mineral oil), <1%; in data set [2] (in octyldodecanol), 2.5%; in data set [2] (in phenethyl benzoate) it was 57%; in data set [2] (in propylene glycol dicaprylate/dicaprate), 22%. Also, the solubility in data set [2] (in tributyl citrate) is recorded as 29.4%; in data set [2] (in triethyl citrate), 29%. Moreover, in data set [1], the absorption maximum was 354 nm.

Turning to `C[Si]1(C)O[Si](C)(C)O[Si](C)(C)O[Si](C)(C)O[Si](C)(C)O1` [cyclopentasiloxane], the polarity index in data set [3] was 32 mN/m.

In the case of `CCCCOC(=O)CCCCC(=O)OCCCC` [dibutyl adipate], the polarity index in data set [3] was 14 mN/m.

On to `CCCCC(CC)COC(=O)c1ccc(Nc2nc(Nc3ccc(C(=O)NC(C)(C)C)cc3)nc(Nc3ccc(C(=O)OCC(CC)CCCC)cc3)n2)cc1` (centres unmarked) [diethylhexyl-butamidotriazone, 4,4′-[[6-[[4-[[(1,1-dimethylethyl)amino]carbonyl]phenyl]amino]-1,3,5-triazin-2,4-diyl]diimino]bis-benzoic acid-bis(2-ethylhexyl)ester], for which, in data set [1], the absorption maximum is on record as 310 nm.

In data set [3], `CC(C)OC(=O)CCCCC(=O)OC(C)C` [diisopropyl adipate] displayed a polarity index of 12 mN/m.

As for `CC(C)OC(=O)CCCCCCCCC(=O)OC(C)C` [diisopropyl sebacate], the polarity index in data set [3] was 19 mN/m.

Consider `CCCCC(CC)COC(=O)/C=C/c1ccc(OC)cc1` (centres unmarked) [ethylhexyl methoxy cinnamate, 2-Ethylhexyl-(2E)-3-(4-methoxyphenyl)acrylate], for which the absorption maximum in data set [1] is listed as 310 nm.

For the molecule `CCCCCCCCCCC(CO)CCCCCCCC` (centres unmarked) [octyldodecanol], in data set [3], the polarity index was 25 mN/m.

As for `O=C(OCCc1ccccc1)c1ccccc1` [phenethyl benzoate], the polarity index in data set [3] stood at 19 mN/m.

`CCCCOC(=O)CC(O)(CC(=O)OCCCC)C(=O)OCCCC` [tributyl citrate] had a polarity index in data set [3] of 10 mN/m.

In data set [3], `CCOC(=O)CC(O)(CC(=O)OCC)C(=O)OCC` [triethyl citrate] registered a polarity index of 7 mN/m.

The values are drawn from patent US12246082B2, “Efficient sunscreen compositions with diethylamino hydroxybenzoyl hexyl benzoate and butyl methoxydibenzoylmethane free of octocrylene” (BASF SE, priority 2019, dated 2025).
